# In patent publication US20170119907A1, “Targeted Therapeutics” (MEDIVATION TECHNOLOGIES, INC., priority 2014, published 2017):
# Assays:
# [1] = system: MSCs from sheep bone marrow; experiment: Differentiation of sheep MSCs to chondrocytes in pellet culture (modified Bern Score); format: cell-based; details: for Cell Distance / Matrix Stain / Morphology: score 0-3; for Final Score (Bern Score): score 0-9
# Procedure: Compounds of the invention were assessed in an in vitro pellet cell culture model of chondrogenesis.
# Conditions tested were: • a. (1) Priming: exposure of cells to TGFβ3 prior to incubation with Compound 4 or Compound 20; • b. (2) Dose: Concentration of Compound 4 or Compound 20 that cells were incubated with prior to pellet culture; and • c. (3) Media: presence or absence of TGFβ3 in the media used for the 3-week pellet culture duration.
# A population of cells enriched for MSCs from sheep bone marrow was harvested, cultured and expanded. Cells from passage 3 (P3) were incubated with either chondrogenic differentiation medium for the Priming “+” groups or chondrogenic differentiation medium without TGFβ3 for the Priming “−” groups. Following centrifugation at 400×g for 5 min and gentle removal of the supernatant, cells were re-suspended with the appropriate number of cells in Compound 4 or Compound 20 in 1×PBS, pH 7, at following concentrations: 10 μM, 3.16 μM, 1 μM, and 0.316 μM of Compound 4; or 10 μM and 1 μM of Compound 20. For control conditions, cells were incubated in 1×PBS at pH 7. All treatment groups were then incubated for 30 min in the dark with nutation. Following centrifugation at 400×g for 5 min and gentle removal of the supernatant, cells were re-suspended and washed with 1×PBS at pH 7 and spun at 400×g for 5 min to remove supernatant. Depending on the condition, cells were re-suspended cells in chondrogenic differentiation medium OR in chondrogenic medium without TGFb3. Cells were counted, and approximately 2.5×10^5 cells were plated into polypropylene 96-well plates incubated under standard pellet culture conditions for three weeks. Medium was changed 3× weekly.
# Pellets were fixed in 10% formalin for at least 8 hours and then infiltrated with paraffin wax. Sections were then cut at approximately 5 microns and stained using safranin-orange, Fast Green, Haematoxylin-Eosin, and 1% Toluidine Blue.
# Histological grading was performed according to a modified Bern Score to assess chondrogenic morphology of the cells and any matrix deposition by the cells according to the following three criteria:
# The subcomponents of the Bern Score are additive. Accordingly, the Bern Score presents a maximum total score of 9 representing the best possible score and minimum score of 0 representing no chondrogenesis.
# In this Example, the Bern Score for Control pellets is a proxy for chondrogenic capacity of the cell population using a standard pellet culture protocol. […] Pellets that were formed using the 30 minute incubation protocol with only PBS replacing Compound 4 (0 μM Compound 4) are referred to as “PBS pellets.”
# hMSCs = experiment: Differentiation of human MSCs to chondrocytes in pellet culture (aggrecan stain); format: cell-based; details: for ECM area (Aggrecan stain): 10 μM, 21 days, Differentiation Medium +, aggrecan ratio relative to cell number; for Differentiation of hMSCs to chondrocytes (in words): compound and differentiation medium, with or without priming, relative to control without differentiation medium
# Procedure: hMSCs (Lonza, Cat No PT-2501) were cultured in complete mesenchymal stem cell culture medium (Lonza, Cat No PT-3238). For differentiation experiments, complete mesenchymal stem cell culture medium was removed, and hMSCs were either incubated for 30 min in chondrocyte differentiation medium containing TGFβ (R&D Systems, Cat No CCM005 and CCM006) (primed condition) or maintained in complete mesenchymal stem cell culture medium for 30 min.
# hMSCs were collected, washed in PBS, and incubated in 500 μL of 10 μM Compound 4 or 20 in PBS for 20 min. Cells were washed in PBS and counted. 5×10^5 cells were placed in a 15 mL tube. The cells were centrifuged at 500 g for 7 min, and either 500 μL of maintenance medium (Lonza, Cat No PT-3238) or chondrocyte differentiation medium was added gently. The medium was changed every 2 to 3 days for three weeks, maintaining the 500 μL volume.
# After three weeks, the medium was removed, and cell pellets were fixed in 500 μL of a 4% paraformaldehyde (PFA) in PBS solution for 20 min at room temperature. The solution was removed, and 500 μL of a 4% PFA, 15% sucrose in PBS was added, and the mixture was left overnight. The solution was removed, and 500 μL of a 4% PFA, 30% sucrose in PBS was added, then the mixture was left overnight or until the pellet was in the bottom of the tube. The pellet culture was frozen in TISSUE-TEK® O.C.T. compound (Cat No 4583), and 5 μm cuts were made. The slices were fixed on a positive charged slide (Cell Path, Cat No MDB-0102-54A). A hydrophobic pen was used to draw a line around the cuts on the slide.
# 100-300 μL of blocking solution (1% BSA, 0.3% TRITON® X-100 in PBS) was added on top of the slices which were left for 1 h at RT. The blocking solution was extracted with a micropipette. Primary antibody (goat anti-aggrecan G1-IgD-G2 domain, R&D systems, Cat No AF1220) was diluted 1:20 in blocking solution, and 100-200 μL of this solution was added on top of the slices. The slides were left at 4° C. overnight in a humidified box. The primary antibody solutions were removed, and the slices were washed 3 times with 1% BSA in PBS for 5 min. The lines were redrawn around the slices with the hydrophobic pen. From the incubation with the secondary antibody and on, the samples were kept in the dark to avoid degrading the fluorophore.
# The secondary antibodies were diluted 1:100 in blocking solution. 100-200 μL of the secondary antibody solution (donkey anti-goat IgG Alexa fluor 488, Invitrogen, Cat No A11055) was added to the slices. The slices were incubated for 1 h at RT. The slices were washed 3 times with 1% BSA in PBS for 5 min. The lines were redrawn around the slices with the hydrophobic pen.
# Slices were stained with 100-200 μL of a 1:2000 dilution of DAPI in PBS for 5 min at RT. The DAPI was removed, and the slices were washed 3 times with PBS for 5 min, then washed a 4th time with distilled water for another 5 min. The slides were left to dry. 30 μL of Fluorescent Mounting Medium was added, and then the slices were covered with a coverslip.
# [2] = Differentiation Medium +, TGFβ3 Priming +, 0.316 μM
# [3] = Differentiation Medium +, TGFβ3 Priming +, 1 μM
# [4] = Differentiation Medium +, TGFβ3 Priming +, 3.16 μM
# [5] = Differentiation Medium +, TGFβ3 Priming +, 10 μM
# [6] = Differentiation Medium +, TGFβ3 Priming −, 0.316 μM
# [7] = Differentiation Medium +, TGFβ3 Priming −, 1 μM
# [8] = Differentiation Medium +, TGFβ3 Priming −, 3.16 μM
# [9] = Differentiation Medium +, TGFβ3 Priming −, 10 μM
# [10] = Differentiation Medium −, TGFβ3 Priming +, 0.316 μM
# [11] = Differentiation Medium −, TGFβ3 Priming +, 1 μM
# [12] = Differentiation Medium −, TGFβ3 Priming +, 3.16 μM
# [13] = Differentiation Medium −, TGFβ3 Priming +, 10 μM
smiles,measurement,setting,value
"Cc1cc2nc3cc(C)c(NCCCCCCCCNc4cc5c(cc4C)nc4cc(C)c(N)cc4[n+]5-c4ccccc4)cc3[n+](-c3ccccc3)c2cc1N.[Cl-].[Cl-] [Compound 4, 7,7′-(octane-1,8-diylbis(azanediyl))bis(3-amino-2,8-dimethyl-5-phenylphenazin-5-ium) chloride]",Chondrogenic capacity (in words),[1]; 3.16 μM and differentiation medium,good chondrogenic capacity
same,Cell Distance,[1]; [2],3
same,Matrix Stain,[1]; [2],3
same,Morphology,[1]; [2],3
same,Final Score (Bern Score),[1]; [2],9
same,Cell Distance,[1]; [3],2.5
same,Matrix Stain,[1]; [3],3
same,Morphology,[1]; [3],2
same,Final Score (Bern Score),[1]; [3],7.5
same,Cell Distance,[1]; [4],2
same,Matrix Stain,[1]; [4],2
same,Morphology,[1]; [4],2
same,Final Score (Bern Score),[1]; [4],6
same,Cell Distance,[1]; [5],0
same,Matrix Stain,[1]; [5],0
same,Morphology,[1]; [5],0
same,Final Score (Bern Score),[1]; [5],0
same,Cell Distance,[1]; [6],2.5
same,Matrix Stain,[1]; [6],3
same,Morphology,[1]; [6],2.5
same,Final Score (Bern Score),[1]; [6],8
same,Cell Distance,[1]; [7],2
same,Matrix Stain,[1]; [7],2.5
same,Morphology,[1]; [7],2
same,Final Score (Bern Score),[1]; [7],6.5
same,Cell Distance,[1]; [8],2
same,Matrix Stain,[1]; [8],2
same,Morphology,[1]; [8],2
same,Final Score (Bern Score),[1]; [8],6
same,Cell Distance,[1]; [9],0
same,Matrix Stain,[1]; [9],0.5
same,Morphology,[1]; [9],0
same,Final Score (Bern Score),[1]; [9],0.5
same,Cell Distance,[1]; [10],0
same,Matrix Stain,[1]; [10],0
same,Morphology,[1]; [10],0
same,Final Score (Bern Score),[1]; [10],0
same,Cell Distance,[1]; [11],0
same,Matrix Stain,[1]; [11],0
same,Morphology,[1]; [11],0
same,Final Score (Bern Score),[1]; [11],0
same,Cell Distance,[1]; [12],0
same,Matrix Stain,[1]; [12],0.5
same,Morphology,[1]; [12],0
same,Final Score (Bern Score),[1]; [12],0.5
same,Cell Distance,[1]; [13],0
same,Matrix Stain,[1]; [13],0
same,Morphology,[1]; [13],0
same,Final Score (Bern Score),[1]; [13],0
same,ECM area (Aggrecan stain),hMSCs; Priming +,1.41
same,ECM area (Aggrecan stain),hMSCs; Priming −,0.74
same,Differentiation of hMSCs to chondrocytes (in words),hMSCs,induced high levels of differentiation
"Cc1cc2nc3cc(C)c(NCCCCCCNC(=O)c4ccc(-c5ccc(C(=O)NCCCCCCNc6cc7c(cc6C)nc6cc(C)c(N)cc6[n+]7-c6ccccc6)cc5)cc4)cc3[n+](-c3ccccc3)c2cc1N.[Cl-].[Cl-] [Compound 20, (3-amino-7-{[6-({4-[4-({6-[(7-amino-5-chloranuide-2,8-dimethyl-5-phenyl-5λ^6,10-phenazin-5-ylium-3-yl)amino]hexyl}carbamoyl)phenyl]phenyl}formamido)hexyl]amino}-2,8-dimethyl-5-phenyl-5λ^6,10-phenazin-5-ylium-5-e)chloranuide]",Cell Distance,[1]; [3],3
same,Matrix Stain,[1]; [3],3
same,Morphology,[1]; [3],2.5
same,Final Score (Bern Score),[1]; [3],8.5
same,Cell Distance,[1]; [5],2.5
same,Matrix Stain,[1]; [5],2.5
same,Morphology,[1]; [5],2.5
same,Final Score (Bern Score),[1]; [5],7.5
same,Cell Distance,[1]; [7],2.5
same,Matrix Stain,[1]; [7],2.5
same,Morphology,[1]; [7],2
same,Final Score (Bern Score),[1]; [7],7
same,Cell Distance,[1]; [9],2
same,Matrix Stain,[1]; [9],2
same,Morphology,[1]; [9],2
same,Final Score (Bern Score),[1]; [9],6
same,Cell Distance,[1]; [11],0
same,Matrix Stain,[1]; [11],0
same,Morphology,[1]; [11],0
same,Final Score (Bern Score),[1]; [11],0
same,Cell Distance,[1]; [13],0
same,Matrix Stain,[1]; [13],0
same,Morphology,[1]; [13],0
same,Final Score (Bern Score),[1]; [13],0
same,Chondrogenic capacity (in words),[1]; either concentration tested (10 μM and 1 μM) and differentiation medium,good chondrogenic capacity
same,ECM area (Aggrecan stain),hMSCs; Priming +,0.97
same,ECM area (Aggrecan stain),hMSCs; Priming −,0.74
same,Differentiation of hMSCs to chondrocytes (in words),hMSCs,induced high levels of differentiation
